“And” between values parts separate entries of the source, which are not always exact repeats. Equal values may be shown once.
Columns and labels:
Assay type in all cases: cell-based, Escherichia coli
BW25113 (prfA+ strain) = test: Efficiency of non-natural amino acid introduction at UAG codon in prfA+ strain (western blotting, TRX-GST fusion); conditions: prfA+ condition, compared with 3-iodotyrosine
From the text: In this experiment, a GST gene containing a UAG codon near the N terminal was introduced, together with an expression unit for introducing a non-natural amino acid, into BW25113 which was a prfA^+ strain. Then, the efficiency of translation was checked. The GST gene containing a UAG codon near the N terminal is incorporated in a plasmid so that a fusion protein of the GST and thioredoxin (TRX) is produced (refer to (a) of FIG. 31). The result is shown in (b) of FIG. 31. […] The strain shown in Lane 1 contains no construct that introduces a non-natural amino acid. As is clear from Lanes 4 to 6, strains into each of which a construct for assigning a UAG codon to 3-iodotyrosine, 4-azidophenylalanine or o-sulfotyrosine has been introduced generate total-length fusion proteins in the presence of corresponding non-natural amino acids (see arrow A in (b) of FIG. 31). Further, in these strains, proteins resulting from termination of translation at the UAG codon were also produced (see arrow B in (b) of FIG. 31). The number in parentheses below each lane indicates the percentage (%) of total-length fusion protein with respect to the sum of the proteins resulting from termination of translation and the full-length fusion protein thus produced. That is, the number indicates the efficiency of non-natural amino acid introduction at the UAG codon. […]

BW25113RFzero-iy strain = conditions: LB liquid culture medium with the non-natural amino acid added, shaking at 37° C. overnight
Method: First, a minute amount of glycerol stock of a BW25113RFzero-iy strain was added to (i) an LB liquid culture medium and (ii) an LB liquid culture medium to which 3-iodotyrosine (IY), 3-bromotyrosine (BrY) or 3-chlorotyrosine (CIY) had been added, and incubated with shaking at 37° C. overnight. In this way, the growth of the BW25113RFzero-iy strain was examined.

[1] = test system: RFzero-iy strains (BW25113RFzero-iy, HMS174RFzero-iy, BL21RFzero-iy); test: Dependence of growth on 3-iodotyrosine, spotting on non-selective LB culture medium; conditions: non-selective LB culture medium with or without 3-iodotyrosine
Method: Furthermore, how much the growth of each of the RFzero-iy strains depends on non-natural amino acids was checked. A cell culture having been incubated overnight was diluted, the diluted culture was spotted on (i) a non-selective LB culture medium containing 3-iodotyrosine and (ii) a non-selective LB culture medium containing no 3-iodotyrosine. The media were further incubated. […] This is consistent with the fact that UAG translation activity is necessary in a cell to avoid lethality caused by prfA knockout.

HST08 = test: Chloramphenicol (Cm) resistance of cat transformants
From the text: (§1) Furthermore, a RFzero-q strain was transformed with a mutated gene which codes for cat, and in which mutated gene there are ten amber codons in ORF (such a mutated gene is referred to as cat(10Am)). […] The “X”s in the amino acid sequence shown in (b) of FIG. 5 indicate positions of amber codons of the cat(10Am), and are glutamic acids in the case of the RFzero-q strain (SEQ ID NO: 18).
(§2) In order to examine if the UAG translation efficiency was improved, a cat(13Am) in which all 13 of the glutamine codons on the cat gene were replaced with UAG was introduced into the RFzero-q3 and RFzero-q7 strains, respectively. […] This was lower than Cm resistance (400 μg/ml) in the HST08 and RFzero-q strains transformed with pACYC184 carrying the wild-type cat gene.

RFzero-q strain = test: as above
From the text: In order to confirm that the RFzero-q strain allows insertion of a glutamic acid at an amber codon, the RFzero-q strain was transformed with a mutated gene which codes for chloramphenicol acetyltransferase (cat), in which mutated gene there are three amber codons in ORF (such a mutated gene is referred to as cat(3Am)). […] The “X”s in the amino acid sequence shown in (a) of FIG. 5 indicate the positions of amber codons of the cat(3Am), and are glutamic acids in the case of the RFzero-q strain (SEQ ID NO: 17).
as §1, §2

RFzero-q3 strain = test: Chloramphenicol (Cm) resistance of cat(13Am) transformant; conditions: RFzero-q3 strain with cat(13Am); listed as Cm
Method: as §2

RFzero-q7 strain = test: as above; conditions: RFzero-q7 strain with cat(13Am)
Method: as §2

[N-]=[N+]=Nc1ccc(C[C@H](N)C(=O)O)cc1 [AzF, 4-azidophenylalanine]
Efficiency of non-natural amino acid introduction at the UAG codon (BW25113 (prfA+ strain)): lower efficiency than 3-iodotyrosine

N[C@@H](Cc1ccc(O)c(Br)c1)C(=O)O [BrY, 3-bromotyrosine]
OD600 (BW25113RFzero-iy strain): 1.39

N[C@@H](Cc1ccc(O)c(Cl)c1)C(=O)O [ClY, 3-chlorotyrosine]
OD600 (BW25113RFzero-iy strain): 1.41

N[C@@H](Cc1ccc(O)c(I)c1)C(=O)O [IY, 3-iodotyrosine]
Dependence of growth on the non-natural amino acid [1]: totally depended on the presence of 3-iodotyrosine
OD600 (BW25113RFzero-iy strain): 1.36

O=C(N[C@H](CO)[C@H](O)c1ccc([N+](=O)[O-])cc1)C(Cl)Cl [chloramphenicol]
Cm concentration at which the strain did not grow (HST08; HST08 into which cat(10Am) had been introduced): < 10 µg/mL
Cm resistance (HST08; HST08 transformed with pACYC184 carrying the wild-type cat gene): 400 µg/mL
Cm resistance (chloramphenicol concentration in culture medium up to which resistance was shown) (RFzero-q strain; RFzero-q strain transformed with cat(3Am)): 400 µg/mL
Cm resistance (chloramphenicol concentration in culture medium up to which resistance was shown) (RFzero-q strain; RFzero-q strain transformed with cat(10Am)): 200 µg/mL
Cm resistance (RFzero-q strain; RFzero-q strain transformed with pACYC184 carrying the wild-type cat gene): 400 µg/mL
Cm resistance (chloramphenicol concentration in culture medium up to which resistance was shown) (RFzero-q strain; RFzero-q strain transformed with wild-type cat): 400 µg/mL
Cm resistance (RFzero-q3 strain): 200 µg/mL and ~400 µg/mL
Cm resistance (RFzero-q7 strain): 200 µg/mL
